Experimental data from US7074334B2, “Method for determining the binding behavior of ligands which specifically bind to target molecules” (priority 2001, dated 2006).
Where “and” joins values, the source holds several entries; their conditions need not be identical. Equal values may be shown once.

Columns and labels:
D2-type receptors = target: T1, D2-type receptors (Sus scrofa, UniProt F1SM69); experiment: MS binding assay with marker spiroperidol in striatal membrane fraction, unbound marker quantified; parameters: species or system porcine
T1 construct: As native material which contains both D1 and D2 receptors in sufficient amount; from tissue; host or cells: porcine brain striatum, membrane fraction
T1 sequence (F1SM69 1-443): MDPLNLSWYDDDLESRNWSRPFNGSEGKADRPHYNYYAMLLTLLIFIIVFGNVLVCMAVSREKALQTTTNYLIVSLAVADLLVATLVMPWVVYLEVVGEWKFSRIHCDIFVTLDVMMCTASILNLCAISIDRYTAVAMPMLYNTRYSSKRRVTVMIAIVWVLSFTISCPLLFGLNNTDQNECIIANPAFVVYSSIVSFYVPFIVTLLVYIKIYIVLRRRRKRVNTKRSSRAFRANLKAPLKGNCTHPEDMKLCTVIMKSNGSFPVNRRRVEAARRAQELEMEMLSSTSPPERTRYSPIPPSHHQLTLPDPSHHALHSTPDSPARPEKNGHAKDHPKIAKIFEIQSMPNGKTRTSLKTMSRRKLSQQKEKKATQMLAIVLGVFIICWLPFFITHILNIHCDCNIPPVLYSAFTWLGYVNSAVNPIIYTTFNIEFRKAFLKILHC

D1-type receptors = D1-type receptors (Sus scrofa, UniProt P50130); details: test substance 1 μmol/L
D1-type receptors, sequence (P50130 whole entry): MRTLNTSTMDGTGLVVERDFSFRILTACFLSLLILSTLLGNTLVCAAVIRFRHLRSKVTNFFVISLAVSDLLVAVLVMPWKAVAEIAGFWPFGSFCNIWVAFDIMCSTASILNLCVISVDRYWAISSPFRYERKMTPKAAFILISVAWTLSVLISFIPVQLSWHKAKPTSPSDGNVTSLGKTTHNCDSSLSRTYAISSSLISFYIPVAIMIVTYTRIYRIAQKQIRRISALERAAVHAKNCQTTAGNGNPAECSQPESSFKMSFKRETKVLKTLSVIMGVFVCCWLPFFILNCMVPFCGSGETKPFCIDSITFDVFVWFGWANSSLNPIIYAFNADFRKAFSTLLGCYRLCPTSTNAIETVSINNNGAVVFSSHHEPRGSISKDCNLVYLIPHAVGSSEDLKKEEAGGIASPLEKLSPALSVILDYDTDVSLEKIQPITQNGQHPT

Row | SMILES | inhibition of the specific binding of the marker spiroperidol to D2-type receptors (D2-type receptors; test substance 1 μmol/L) | inhibition of the specific binding of the marker SCH23390 to D1-type receptors (D1-type receptors) | concentration of unbound marker spiroperidol (D2-type receptors)
1 | COC(=O)c1ccccc1 [methyl benzoate] | not capable of inhibiting | none is capable | –
2 | O=C(CCCN1CCC2(CC1)C(=O)NCN2c1ccccc1)c1ccc(F)cc1 [spiroperidol] | – | – | 1.93 nmol/L and 2.75 nmol/L and 2.78 nmol/L and 2.29 nmol/L and 1.89 nmol/L
